Test results: patent US20240122179A1, “AUXINIC HERBICIDES AND METHODS OF USE THEREOF” (CORTEVA AGRISCIENCE LLC, priority 2021, published 2024)
Like-named read-outs stand apart in the source and are kept apart here.

Legend:
[1] = system: Amaranthus palmeri (AMAPA); experiment: Postemergence herbicide evaluation, percent reduction in plant size vs untreated control, 21 days after treatment; format: in vivo, Amaranthus palmeri (Palmer amaranth); settings: post-emergence, 504 h, postemergence, read-out: Control/Injury; for pest or weed control at 140 g/ha: rate 140 g ae/ha; for pest or weed control at 280 g/ha: rate 280 g ae/ha
In short: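 Greenhouse-grown Palmer amaranth (25 to 28° C, 16 h light) sprayed postemergence at the 2 to 8 leaf stage with 140 or 280 g ae/ha in acetone/DMSO-based solution containing crop oil concentrate, 187 L/ha by track sprayer. Three to four replicates; plant size measured 21 days after treatment as percent reduction versus untreated control.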

[2] = system: Ambrosia artemisiifolia (AMBEL); experiment: as above; format: in vivo, Ambrosia artemisiifolia (common ragweed); settings: post-emergence, 504 h, AMBEL, postemergence, read-out: Control/Injury; for pest or weed control at 140 g/ha: rate 140 g ae/ha; for pest or weed control at 280 g/ha: rate 280 g ae/ha
In short: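 Greenhouse-grown plants (25–28 °C, 16 h light) were sprayed postemergence at the 2–8 leaf stage with 140 or 280 g ae/ha in acetone/DMSO-based spray solution with crop oil and surfactant, at 187 L/ha by track sprayer. There were 3–4 replicates. Plant size was measured 21 days after treatment versus untreated plants.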

Kochia scoparia (KCHSC) = experiment: as above; format: in vivo; settings: Bassia scoparia, post-emergence, 504 h, KCHSC, postemergence, read-out: Control/Injury; for pest or weed control at 140 g/ha: rate 140 g ae/ha; for pest or weed control at 280 g/ha: rate 280 g ae/ha
In short: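 Greenhouse-grown plants (25-28 °C, 16 h light) at the 2 to 8 leaf stage were track-sprayed postemergence at 140 or 280 g ae/ha in acetone/DMSO-based spray solution with crop oil and surfactant, at 187 L/ha, in 3-4 randomized replicates.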

Glycine max = experiment: whole plant or invertebrate; settings: for plant injury at 280 g/ha / plant injury at 140 g/ha: Glycine max, post-emergence, 504 h, read-out: Control/Injury
Experimental: Plants were grown in a soil media composed of 90% by volume Promix BX (Premier Tech Horticulture, Quakertown, PA) and 10% Profile Greens Grade (Profile Products LLC, Buffalo Grove, IL). Promix BX contains approximately 83% Sphagnum Peat Moss, 13% Perlite, 5% vermiculite, and proprietary amounts of limestone, starter fertilizer, and wetting agent. Profile Greens Grade is a sand-sized granule formed from calcining illite and montmorillonite clay. Several seeds of each species were planted in 10 cm square pots and top watered twice daily. Plant material was propagated in a warm greenhouse with temperature ranging from 25 to 28° C. and 50 to 60% relative humidity at the Corteva Global Headquarters (Indianapolis, Indiana, USA). Natural light was supplemented with 1000-watt metal halide overhead lamps with an average illumination of 500 μE m^−2 s^−1 photosynthetic active radiation for 16 consecutive hours each day. Plants were top-watered prior to herbicide application and sub-watered after herbicide application.
Appropriate amounts of test materials were weighed out into glass vials in their technical form to deliver either 140 or 280 g acid equivalent (ae)/ha. The samples were dissolved in 3 ml of Solvent 1. Solvent 1 is 97% acetone and 3% dimethyl sulfoxide and serves as a general-purpose solvent (GPS) for dissolving technical materials. […] The samples were then diluted to their final concentration using 17 ml of solvent 2 for a total of 20 ml of spray solution. Solvent 2 contains 41.58% GPS, 45.53% water, 11.88% isopropyl alcohol, 0.99% crop oil concentrate and 0.02% Trition X-155 surfactant. All percentages are listed on a volume basis. Dicamba diglycolamine was applied as a formulated herbicide, Clarity™ and diluted with solvent 2 to compare all materials in the same spray solution.
Herbicide applications were made to 3 to 4 replicates of each plant species at the 2 to 8 leaf stage, depending on the species. Treatments were applied with a research track-sprayer (Generation III Research Sprayer manufactured by DeVries Manufacturing in Hollandale, MN, USA) calibrated to deliver a spray volume of 187 L/ha. The track-sprayer was fitted with an 8003E nozzle from Spray Systems Company (North Avenue and Schmale Road, P.O. Box 7900, Wheaton, IL 60187), and used a spray pressure of 276 kPa pressure and a speed of 3.1 km/h. The nozzle height was 46 cm above the plant canopy. The experimental design used for the trials was a randomized complete block with 3 or 4 replications per treatment. After application, plants were placed on carts according to the randomization and returned to the greenhouse. Plants were sub-watered after treatment with Indianapolis city water or fertilized three times a week with a commercial fertilizer solution (Jack's Professional 15-5-15 4 Ca 2 Mg fertilizer (manufactured by JR PETERS INC., 6656 Grant Way, Allentown, PA 18106; www.jrpeters.com). Percent visual control assessments were made on a scale of 0 to 100% (where 0 was no control and 100 was complete plant death) at 7, 14, and 21 days after treatment.
In conformity with the methods outlined in Example 49, the effect of representative experimental compounds on the growth of Glycine max was determined at 2 different levels (respectively, 140 and 280 g acid equivalent (ae)/ha) of the experimental actives tested. Plants were treated with one of the compounds, a control plant was not treated. Twenty-one days after treatment, the plants were measured. The data is present as a percent reduction in plant size relative to the untreated control.

Amaranthus rudis (AMATA) = experiment: Postemergence herbicide evaluation, percent reduction in plant size vs untreated control, 21 days after treatment; format: in vivo, Amaranthus rudis (tall water hemp); settings: Amaranthus tuberculatus, post-emergence, 504 h, AMATA, postemergence, read-out: Control/Injury; for pest or weed control at 140 g/ha: rate 140 g ae/ha; for pest or weed control at 280 g/ha: rate 280 g ae/ha
In short: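 Greenhouse-grown tall waterhemp (25-28° C, 16 h light) at the 2-8 leaf stage, treated by track sprayer at 187 L/ha with compound at 140 or 280 g ae/ha in acetone/DMSO-based spray solution with crop oil and surfactant. 3-4 replicates per treatment, randomized complete block; plant size reduction versus untreated control measured 21 days after treatment.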

[3] = system: Conyza canadensis (L.) (ERICA); experiment: as above; format: in vivo, Conyza canadensis (L.) (Horseweed); settings: Erigeron canadensis, post-emergence, 504 h, ERICA, postemergence, read-out: Control/Injury; for pest or weed control at 140 g/ha: rate 140 g ae/ha; for pest or weed control at 280 g/ha: rate 280 g ae/ha
In short: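 Horseshoe-weed (horseweed) seedlings at 2 to 8 leaf stage in greenhouse (25-28° C, 16 h light), sprayed postemergence at 140 or 280 g ae/ha in acetone/DMSO-based spray solution, 187 L/ha track-sprayer. Randomized complete block, 3-4 replicates; plant size measured 21 days after treatment as percent reduction vs untreated controls.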

[4] = R-AMAPA, percent reduction vs untreated control, 21 days after treatment
[5] = percent reduction vs untreated control, 21 days after treatment
[6] = percent reduction vs untreated, 21 days after treatment

Row | SMILES | pest or weed control at 140 g/ha [1, 4] [%] | pest or weed control at 280 g/ha [1, 4] [%] | pest or weed control at 140 g/ha [2] [%] | pest or weed control at 280 g/ha [2] [%] | pest or weed control at 140 g/ha (Kochia scoparia (KCHSC)) [%] | pest or weed control at 280 g/ha (Kochia scoparia (KCHSC)) [%] | Control/Injury (Glycine max; in vivo) | pest or weed control at 140 g/ha (Amaranthus rudis (AMATA)) [%] | pest or weed control at 280 g/ha (Amaranthus rudis (AMATA)) [%] | pest or weed control at 140 g/ha [3, 5] [%] | pest or weed control at 280 g/ha [3, 5] [%] | plant injury at 280 g/ha (Glycine max) [%] | plant injury at 140 g/ha (Glycine max) [%] | other results
1 | COc1c(Cl)ccc(Cl)c1C(=O)Nc1ncccn1 [Compound A-62] | 73 | 92 | 83 | 87 | 77 | 90 | 3 | 65 | 76 | 82 | 93 | – | – | –
2 | COc1c(Cl)ccc(Cl)c1C(=O)OCC[N+](C)(C)C [Compound A-63] | 73 | 87 | 82 | 97 | 92 | 97 | – | 58 | 77 | 85 | 92 | – | – | Control/Injury (Glycine max; GLXMA (soybean crop injury), rate 140 g ae/ha, postemergence, percent reduction vs untreated control, 21 days after treatment): 2; Control/Injury (Glycine max; GLXMA (soybean crop injury), rate 280 g ae/ha, postemergence, percent reduction vs untreated control, 21 days after treatment): 5
3 | COc1c(Cl)ccc(Cl)c1C(=O)Oc1cncnc1 [Compound A-66] | 13 | 5 | 15 | 15 | 0 | 0 | 3 | 0 | 2 | 0 | 2 | – | – | –
4 | COc1c(Cl)ccc(Cl)c1C(=O)ON1C(=O)CCC1=O [Compound A-73] | 70 | 83 | 77 | 82 | 82 | 88 | 1 | 50 | 88 | 85 | 80 | 4 | – | –
5 | COc1c(Cl)ccc(Cl)c1C(=O)ON1C(=O)c2ccccc2C1=O [Compound A-74] | 68 | 85 | 77 | 88 | 94 | 97 | – | 70 | 90 | 70 | 83 | 3 | 2 | –
6 | COc1c(Cl)ccc(Cl)c1C(=O)ON(C)C(=O)Nc1ccccc1 [Compound A-75] | 73 | 91 | 82 | 88 | 88 | 97 | – | 58 | 85 | 72 | 73 | 3 | 3 | –
7 | COc1c(Cl)ccc(Cl)c1C(=O)Oc1ccc(Cl)cc1 [Compound A-76] | 55 | 65 | 80 | 83 | 83 | 87 | – | 68 | 67 | 68 | 55 | 4 | 4 | –
8 | COc1c(Cl)ccc(Cl)c1C(=O)Nc1ccc(Cl)cc1 [Compound A-77] | 82 | 78 | 67 | 77 | 96 | 93 | – | 83 | 85 | 40 | 68 | 8 | 8 | –
9 | COCCONC(=O)c1c(Cl)ccc(Cl)c1OC [Compound A-95] | 42 | 55 | – | – | – | – | 15 | – | – | 8 | 17 | 6 | 4 | pest or weed control at 140 g/ha ([1]; AMAPA): 5%; pest or weed control at 280 g/ha ([1]; AMAPA): 13%; pest or weed control at 140 g/ha (Kochia scoparia (KCHSC); [5]): 57%; pest or weed control at 140 g/ha (Kochia scoparia (KCHSC); [6]): 3%; pest or weed control at 280 g/ha (Kochia scoparia (KCHSC); [5]): 77%; pest or weed control at 280 g/ha (Kochia scoparia (KCHSC); [6]): 3%; pest or weed control at 140 g/ha [3]: 3%; pest or weed control at 280 g/ha [3]: 5%
